The values below come from patent US20210114983A1, “Cathepsin C inhibitors” (National Institute of Biological Sciences, Beijing, priority 2018, published 2021).

In this experiment the target is rhCatC (Cathepsin C) (Homo sapiens, UniProt P53634). As to the kind of experiment: In Vitro CatC Enzyme Assay. The settings on record: read-out: Cat C Enzy (Cathepsin C inhibitory activity, IC50). The experiment is classed as biochemical. The method, then: In Vitro CatC Enzyme Assay
Chain of rhCatC (Cathepsin C) (P53634 25-134 limits assumed): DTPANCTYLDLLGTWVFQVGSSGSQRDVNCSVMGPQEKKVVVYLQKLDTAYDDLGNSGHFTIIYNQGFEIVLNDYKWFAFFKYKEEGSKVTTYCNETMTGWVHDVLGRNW
Chain of rhCatC (Cathepsin C) (P53634 231-394 limits assumed): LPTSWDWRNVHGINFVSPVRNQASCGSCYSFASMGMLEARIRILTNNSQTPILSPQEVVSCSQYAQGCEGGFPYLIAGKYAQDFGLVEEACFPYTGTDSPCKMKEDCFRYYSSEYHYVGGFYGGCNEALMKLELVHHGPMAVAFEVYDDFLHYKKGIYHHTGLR
Chain of rhCatC (Cathepsin C) (P53634 395-463 limits assumed): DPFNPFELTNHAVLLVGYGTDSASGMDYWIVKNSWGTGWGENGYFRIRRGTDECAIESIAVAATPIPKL
The CatC enzyme assay was performed in black 384-well plate. Firstly, rhCatC (440 nM) was activated by rhCatL (300 nM) in activation buffer (25 mM MES, 5 mM DTT, pH 6.0) at room temperature for 2 h and then activated rhCatC was diluted to 4.4 nM in assay buffer (25 mM MES, 50 mM NaCl, 5 mM DTT, 0.01% (v/v) Triton X100, pH 6.0), 14 μL activated rhCatC and 1 μL compound in 10% DMSO or 10% DMSO were incubated at room temperature for 3 h, and 5 μL substrate (Gly-Phe-AFC) was added to final concentration of 100 μM. After 60 min reaction, the product of the reaction was measured in the Enspire plate reader using Ex λ400 nm and Em λ505 nm for AFC. A standard irreversible CatC inhibitor 10 by AstraZeneca (J. Med. Chem. 2014, 57, 2357-2367) was used as an inhibitor control in the assay.
As for `C=CC(=O)Nc1cccc(Oc2nc(Nc3cccc(CN)c3)ccc2Cl)c1` [Compound 6, N-(3-((6-((3-(aminomethyl)phenyl)amino)-3-chloropyridin-2-yl)oxy)phenyl)acrylamide], the 50% inhibitory concentration (IC50) lay within 300 to 30000 nM.

Regarding `C=CC(=O)Nc1cccc(Oc2nc(Nc3ccc(N4CCN(C)CC4)cc3)ccc2Cl)c1` [Compound 4, N-(3-((3-chloro-6-((4-(4-methylpiperazin-1-yl)phenyl)amino)pyridin-2-yl)oxy)phenyl)acrylamide], the IC50 was in the range of 300 to 30000 nM.

On to `C=CC(=O)Nc1cc(Oc2nc(Nc3ccc(N4CCN(C)CC4)cc3OC)ccc2N2CCCCC2)ccc1C(F)(F)F` [Compound 45], for which the IC50 fell in the range of 3 to 300 nM.

As to `C=CC(=O)Nc1cc(Oc2nc(Nc3ccc(N4CCN(C)CC4)cc3OC)ccc2N2CCN(C)CC2)ccc1C` [Compound 33, N-(5-((6-((2-methoxy-4-(4-methylpiperazin-1-yl)phenyl)amino)-3-(4-methylpiperazin-1-yl)pyridin-2-yl)oxy)-2-methylphenyl)acrylamide], the IC50 fell in the range of 3 to 300 nM.

On to `C=CC(=O)Nc1cccc(Oc2nc(Nc3ccc(N4CCN(CC5CCCC5)CC4)cc3)ccc2Cl)c1` [Compound 15, N-(3-((3-chloro-6-((4-(4-(cyclopentylmethyl)piperazin-1-yl)phenyl)amino)pyridin-2-yl)oxy)phenyl)acrylamide], for which the IC50 lay in the range of 300 to 30000 nM.

On to `C=CC(=O)Nc1cccc(Oc2cccc(Nc3ccc(N4CCN(C)CC4)cc3OC)n2)c1` [Compound 21, N-(3-((6-((2-methoxy-4-(4-methylpiperazin-1-yl)phenyl)amino)pyridin-2-yl)oxy)phenyl)acrylamide], for which the IC50 fell in the range of 300 to 30000 nM.

For the compound `C=CC(=O)Nc1cc(Oc2nc(Nc3ccc(N4CCN(C)CC4)cc3OC)ccc2N2CCC(O)C2)ccc1C` (stereo not drawn) [Compound 31, N-(5-((3-(3-hydroxypyrrolidin-1-yl)-6-((2-methoxy-4-(4-methylpiperazin-1-yl)phenyl)amino)pyridin-2-yl)oxy)-2-methylphenyl)acrylamide], the IC50 was in the range of 3 to 300 nM.

`C=CC(=O)Nc1cccc(Oc2cccc(Nc3ccc(N4CCN(C)CC4)cc3)n2)c1` [Compound 5, N-(3-((6-((4-(4-methylpiperazin-1-yl)phenyl)amino)pyridin-2-yl)oxy)phenyl)acrylamide]: the concentration for half-maximal inhibition (IC50) fell in the range of 300 to 30000 nM.

For `C=CC(=O)Nc1cc(Oc2nc(Nc3ccc(N4CCN(C)CC4)cc3OC)ccc2N2CCOCC2)ccc1C` [Compound 30, N-(5-((6-((2-methoxy-4-(4-methylpiperazin-1-yl)phenyl)amino)-3-morpholinopyridin-2-yl)oxy)-2-methylphenyl)acrylamide], the 50% inhibitory concentration (IC50) lay within 3 to 300 nM.

For `C#CCN1CCN(c2ccc(Nc3ccc(N4CCCCC4)c(Oc4ccc(C)c(NC(=O)C=C)c4)n3)c(OC)c2)CC1` [Compound 56], the IC50 fell in the range of 3 to 300 nM.

For `C=CC(=O)Nc1cc(Oc2nc(Nc3ccc(N4CCN(C)CC4)cc3OC)ccc2N2CCCC2)ccc1OC` [Compound 39, N-(2-methoxy-5-((6-((2-methoxy-4-(4-methylpiperazin-1-yl)phenyl)amino)-3-(pyrrolidin-1-yl)pyridin-2-yl)oxy)phenyl)acrylamide], the half-maximal inhibitory concentration (IC50) lay in the range of 3 to 300 nM.

As for `C=CC(=O)Nc1ccc(C)c(Oc2nc(Nc3ccc(N4CCN(C)CC4)cc3OC)ccc2N2CCCC2)c1` [Compound 42, N-(3-((6-((2-methoxy-4-(4-methylpiperazin-1-yl)phenyl)amino)-3-(pyrrolidin-1-yl)pyridin-2-yl)oxy)-4-methylphenyl)acrylamide], the half-maximal inhibitory concentration (IC50) is 300 to 30000 nM.

Take `C=CC(=O)Nc1cccc(Oc2nc(Nc3ccccc3)ccc2Cl)c1` [Compound 3, N-(3-((3-chloro-6-(phenylamino)pyridin-2-yl)oxy)phenyl)acrylamide]: the IC50 was 300 to 30000 nM.

As for `C=CC(=O)Nc1cc(Oc2nc(Nc3ccc(N4CCN(C)CC4)cc3OC)ccc2N2CCCC(O)C2)ccc1C` (stereo not drawn) [Compound 32, N-(5-((3-(3-hydroxypiperidin-1-yl)-6-((2-methoxy-4-(4-methylpiperazin-1-yl)phenyl)amino)pyridin-2-yl)oxy)-2-methylphenyl)acrylamide], the half-inhibitory concentration (IC50) is 3 to 300 nM.

In the case of `C=CC(=O)Nc1cccc(Oc2nc(Nc3ccc(N4CCN(C)CC4)cc3OC)ccc2N2CCCC2)c1` [Compound 20, N-(3-((6-((2-methoxy-4-(4-methylpiperazin-1-yl)phenyl)amino)-3-(pyrrolidin-1-yl)pyridin-2-yl)oxy)phenyl)acrylamide], the concentration for half-maximal inhibition (IC50) was 3 to 300 nM.

`C=CC(=O)Nc1cccc(Oc2nc(Nc3ccc(N4CCN(C)CC4)cc3OC)ccc2N2CCCC2)c1C` [Compound 41, N-(3-((6-((2-methoxy-4-(4-methylpiperazin-1-yl)phenyl)amino)-3-(pyrrolidin-1-yl)pyridin-2-yl)oxy)-2-methylphenyl)acrylamide]: the 50% inhibitory concentration (IC50) was in the range of 300 to 30000 nM.

Regarding `C=CC(=O)Nc1cccc(Oc2nc(Nc3ccc(N4CCN(C)CC4)cc3OC)ccc2N2CCCCC2)c1` [Compound 52, N-(3-((6-((2-methoxy-4-(4-methylpiperazin-1-yl)phenyl)amino)-3-(piperidin-1-yl)pyridin-2-yl)oxy)phenyl)acrylamide], the IC50 lay within 3 to 300 nM.

For the compound `C=CC(=O)Nc1cccc(Oc2nc(Nc3ccc(N4CCN(CC5CC5)CC4)cc3)ccc2Cl)c1` [Compound 14, N-(3-((3-chloro-6-((4-(4-(cyclopropylmethyl)piperazin-1-yl)phenyl)amino)pyridin-2-yl)oxy)phenyl)acrylamide], the 50% inhibitory concentration (IC50) lay within 300 to 30000 nM.

Regarding `C=CC(=O)Nc1cc(Oc2nc(Nc3ccc(N4CCNCC4)cc3OC)ccc2N2CCCCC2)ccc1C` [Compound 54], the half-maximal inhibitory concentration (IC50) lay in the range of 3 to 300 nM.

For the compound `C=CC(=O)Nc1cccc(Oc2nc(Nc3ccc(N4CCOCC4)cc3)ccc2Cl)c1` [Compound 2, N-(3-((3-chloro-6-((4-morpholinophenyl)amino)pyridin-2-yl)oxy)phenyl)acrylamide], the IC50 lay in the range of 300 to 30000 nM.

As to `C=CC(=O)Nc1cccc(Oc2nc(Nc3ccc(N4CCN(C)CC4)cc3OC)ccc2C#N)c1` [Compound 17, N-(3-((3-cyano-6-((2-methoxy-4-(4-methylpiperazin-1-yl)phenyl)amino)pyridin-2-yl)oxy)phenyl)acrylamide], the half-inhibitory concentration (IC50) is 300 to 30000 nM.

Regarding `C=CC(=O)Nc1cccc(N(Cc2ccccc2)c2cccc(Nc3ccc(N4CCN(C)CC4)cc3OC)n2)c1` [Compound 25, N-(3-(benzyl(6-((2-methoxy-4-(4-methylpiperazin-1-yl)phenyl)amino)pyridin-2-yl)amino)phenyl)acrylamide], the IC50 was 300 to 30000 nM.

As to `C=CC(=O)Nc1cccc(Oc2nc(N(Cc3ccccc3)c3ccc(N4CCNCC4)cc3)ccc2Cl)c1` [Compound 27, N-(3-((6-(benzyl(4-(piperazin-1-yl)phenyl)amino)-3-chloropyridin-2-yl)oxy)phenyl)acrylamide], the 50% inhibitory concentration (IC50) is 300 to 30000 nM.

As to `C=CC(=O)Nc1cccc(Oc2nc(Nc3ccc(CCN)cc3)ccc2Cl)c1` [Compound 10, N-(3-((6-((4-(2-aminoethyl)phenyl)amino)-3-chloropyridin-2-yl)oxy)phenyl)acrylamide], the IC50 is 300 to 30000 nM.

One may read the IC50 as the concentration that gives 50% inhibition.
